Measurements from PubChem BioAssay AID743417 (Broad Institute, 2014).
Results filed as inconclusive are left out. Active and inactive are the calls of the source.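 Rule for the calls: active = compounds lowering the luciferase signal with a fitted half-maximal dose at most twice their top valid dose (cut at about 30 µM in these data); inconclusive = flat fits with moderate signal loss, or poor fits; inactive = the rest.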

What follows are compounds tested on Clone20 osteoblast Shn3 3'UTR firefly luciferase, 24 h (assay: Schnurri-3 3'UTR-luciferase signal suppressors – cell-based, Clone20 osteoblasts, luminescence, dry powder, set 2, dose response (AID 743417)).

`CCOC(=O)C1(CCOc2ccccc2)CCN(Cc2ccc(OC)c(COC)c2)CC1` and `COc1cccc(CN(C)C(=O)c2cccc(S(=O)(=O)N3CCN(Cc4ccccc4)CC3)c2)c1OC` are within 1.5-fold of each other in AC50: 3.87 µM for the first, 4.94 µM for the second.

First: Cc1c(Cl)sn(-c2ccc(Cl)cc2)c1=O
Second: O=C(Nc1ccc([N+](=O)[O-])cc1Cl)c1cc(Cl)ccc1O
The AC50 of the first is 4.1-fold lower: 0.728 µM for the first, 3 µM for the second.

First: CCOc1ccc(/C=C/[N+](=O)[O-])c2ccccc12
Second: O=[N+]([O-])/C=C/c1cn(Cc2ccc(Cl)cc2)c2ccccc12
The AC50 of the first is 1.9-fold lower: 4.27 µM for the first, 8.32 µM for the second.

Compared with `COc1ccc2c(CC(=O)OCC(=O)N(C)c3c(N)n(Cc4ccccc4)c(=O)[nH]c3=O)coc2c1`, `CCOC(=O)Cn1c(S(=O)(=O)Cc2ccccc2Cl)nc(-c2ccccc2)c1-c1ccccc1` is 2.3-fold lower in AC50: 21.2 µM for the first, 9.29 µM for the second.

Compared with `CCCCCCCCCCOC(=O)Cn1c(COc2ccc(OC)cc2)[n+](C)c2ccccc21`, `CCOc1ccc(OCc2cccc(C(=O)O)c2)cc1` is 3.1-fold lower in AC50: 2.01 µM for the first, 0.649 µM for the second.

Going from `Cc1cccc(Oc2cc(NC(=O)c3ccccc3)cc([N+](=O)[O-])c2)c1` to `Cc1cccc(C(=O)Nc2ccc(C(=O)/C=C/c3cccnc3)cc2)c1`, the AC50 rises from 3.09 µM to 6.23 µM (2-fold).

Going from `CC(=O)c1ccc(NC(=O)C(C)OC(=O)/C=C/c2ccco2)cc1` (configuration not stated) to `CC(C)CC(=O)NC(=S)Nc1ccc(N2CCN(C(=O)c3cccs3)CC2)cc1`, the AC50 falls from 9.12 µM to 2.54 µM (3.6-fold).

Compared with `Cc1ccc(S(=O)(=O)N2CCC3(CC2)OCCN3S(=O)(=O)c2c(C)cc(C)cc2C)cc1`, `CN1CCN(S(=O)(=O)c2ccc(Sc3nnnn3-c3ccccc3)c([N+](=O)[O-])c2)CC1` is 1.7-fold lower in AC50: 6.81 µM for the first, 3.9 µM for the second.

Compared with `NC(=Nc1nc(-c2ccccn2)cc2ccccc12)c1ccccn1`, `Cc1cc(C)nc(SCC(=O)Nc2ccnc3ccccc23)n1` is higher in AC50: under 0.26 µM for the first, 0.462 µM for the second.

`COC(=O)C1=C(c2ccc(-c3ccccc3)c(F)c2)C[C@@H]2CC[C@H]1N2C(=O)NCC1CC1` and `O=C1/C(=C/c2ccccc2)C[C@@]2(O)[C@H]3Cc4ccc(O)c5c4[C@@]2(CCN3CC2CC2)C1O5` (some centres not stated) are within 1.5-fold of each other in AC50: 4.32 µM for the first, 4.64 µM for the second.

`CN1CCN(C(c2ccc(Br)cc2)c2cc(Cl)c3cccnc3c2O)CC1` (configuration not stated) and `O=C(NCc1cccnc1)c1ccc(-c2ccc(F)c(F)c2)c2ccoc12` are within 1.5-fold of each other in AC50: 3.61 µM for the first, 3.48 µM for the second.

Compared with `COC1CC2C=C(C)C=CC=CC(=O)NC(c3ccccc3)CC=CCCC(O)CC(=O)C2=C1O` (configuration not stated), `Cc1nn(-c2ccccc2)c(C)c1C(=O)OC(C)C(=O)NC1CCCCC1` (configuration not stated) is 13-fold higher in AC50: 0.629 µM for the first, 8.19 µM for the second.

`Cc1cccc(NC(=O)/C=C/c2ccc([N+](=O)[O-])s2)c1` and `Cc1ccc(Cn2ccc(NC(=O)c3nn(C)cc3[N+](=O)[O-])n2)cc1` are within 1.5-fold of each other in AC50: 3.29 µM for the first, 4.09 µM for the second.

Compared with `CCN1CCN(Cc2ccc(NC(=O)c3cc(NC(=O)c4cncc(-c5ccc(C#N)cc5)c4)cc(OC)c3)cc2C(F)(F)F)CC1`, `CC(=O)Nc1ccc(OCC(=O)Nc2ccc(Cl)c(S(=O)(=O)N3CCOCC3)c2)cc1` is 2.1-fold lower in AC50: 3.36 µM for the first, 1.59 µM for the second.

First: O=C(c1cccc(S(=O)(=O)N2CCN(c3ccccc3)CC2)c1)N1CCCC(C(F)(F)F)C1 (configuration not stated)
Second: O=C(Nc1nc(-c2ccccc2)cs1)C1CCCCN1S(=O)(=O)c1ccccc1 (configuration not stated)
The AC50 of the first is 1.9-fold lower: 2.68 µM for the first, 5.14 µM for the second.

`CS(=O)(=O)c1nc(-c2ccc(F)cc2)cc(C(F)(F)F)n1` and `COc1ccccc1-c1cc(C(F)(F)F)nc(S(=O)(=O)CCCC(=O)N2CCOCC2)n1` are within 1.5-fold of each other in AC50: 2.72 µM for the first, 3.02 µM for the second.

First: COCCC1CCCCN1C(=O)c1cc(COc2ccc(-n3cncn3)cc2)on1 (configuration not stated)
Second: O=C(c1cc(COc2c(F)cccc2F)on1)N1CCC(c2ccncc2)CC1
The AC50 of the first is 2.8-fold lower: 0.57 µM for the first, 1.6 µM for the second.

Going from `Cc1ccc(C)c(N2CCN(C(=O)CCCCCn3c(=S)[nH]c4ccc(N5CCOCC5)cc4c3=O)CC2)c1` to `CC(C)C(=O)N1CCN(c2ccc(NC(=O)c3ccc([N+](=O)[O-])o3)cc2Cl)CC1`, the AC50 falls from 1.99 µM to 0.954 µM (2.1-fold).

Compared with `CC1CC(C)CC(C)C(O)C(C#N)=CC=CCC(C2CCCC2C(=O)O)OC(=O)CC(O)C(C)C1` (configuration not stated), `Cc1c(CCOC(=O)C23CC4(C)CC(C)(CC(C)(C4)C2)C3)sc[n+]1CC(=O)c1ccccc1` is higher in AC50: under 0.26 µM for the first, 5.84 µM for the second.

`CC(C)C[C@H]1CN=C(N(C)C)N1CC1CCCCCC1` and `NC1=NC[C@H](c2ccccc2)N1CCCCC1CCCCC1` are within 1.5-fold of each other in AC50: 5.03 µM for the first, 4.23 µM for the second.

`C=CCNc1nc2c(c(=O)n(C)c(=O)n2C)n1CCCCCC` and `CC(C)Cn1c(N)c(C(=O)CSc2ccc3c(c2)OCCO3)c(=O)n(C)c1=O` are within 1.5-fold of each other in AC50: 0.761 µM for the first, 0.674 µM for the second.

Compared with `CCSc1nc2ccccc2n1C(=O)/C=C/c1ccc(OC)c(OC)c1`, `COc1ccc(OC)c2sc(N(CCN(C)C)C(=O)/C=C/c3cccs3)nc12` is 13-fold higher in AC50: 0.962 µM for the first, 12.7 µM for the second.

`CC(CCCC(C)(C)O)NC(=O)c1cc(COc2ccc3ncccc3c2)on1` (configuration not stated) and `CC(C)(C)c1cc(C(=O)N/N=C/c2ccccc2O)n(-c2ccccc2)n1` are within 1.5-fold of each other in AC50: 1.75 µM for the first, 2.25 µM for the second.

Going from `NC(c1csc(NC(=O)Nc2cccc(C(F)(F)F)c2)n1)C1CCCCC1` (configuration not stated) to `Cc1cc(C)c(CN2CCN(C(=O)Cn3cnc4c(NCc5ccccc5)ncnc43)CC2)c(C)c1`, the AC50 falls from 4.81 µM to 0.417 µM (12-fold).

Compound `CC(C)(C)C(=O)/C(=C/c1ccncc1)n1cncn1` has an AC50 of 3.27 µM.

With `CC(=O)O[C@H]1CCC2C3CC[C@H]4[C@@H](O)[C@H](O)CC[C@]4(C)C3CC[C@@]21C` (some centres not stated) the AC50 was > 70 µM (inactive).
`COc1ccc(OC)c(C(c2nnnn2Cc2ccccc2)N2CCN(C3CCCCC3)CC2)c1` (configuration not stated) was tested, and the AC50 was > 70 µM (inactive).
For `Cc1ccc(CNC(=O)c2cc(-c3ccccc3C)nn2CC2CC(c3cccnc3)=NO2)cc1` (configuration not stated), the AC50 was > 70 µM (inactive).
